Earlier results as cited in article PMC4245168 (ACS Chemical Biology, 2014).

System: parent TPR2A protein
Conditions: MEAVD versus MEEVD, ref [8]; cited from earlier work

Which “ΔΔG associated with the difference between MEAVD and MEEVD binding” value does the source give for MEAVD here?
The value was ~0.6 kcal/mol.
